This test has as its system H1N1 influenza virus (California 2011). Briefly: Prevention of mortality in immunodeficient mice infected with H1N1 influenza virus. It is filed as in vivo. Conditions: cyclophosphamide-immunodeficient mice, oral 0.2 ml daily, 10 ED90/mouse intranasally.

The record followed here is patent publication US11446338B2, “Food, cosmetic and pharmaceutical formulation with an immunomodulatory and protective anti-viral effect” (priority 2018, dated 2022).

On to `CC(N)C12CC3CC(CC(C3)C1)C2` (centres unmarked) [Rimantadine], for which the “Percentage of surviving animals after experiment, %” value was 50% and the “The number of surviving animals after the experiment, n = 10” value stood at 5.
